The IC50 is the point on the concentration scale where inhibition reaches its midpoint.

Residues, ends and D or L forms follow the SMILES beside them. *: point of attachment. X12 = C[C@H](COC(=O)N(C)Cc1ccc(-c2[nH]c3cc(F)cc4c3c2CCNC4=O)cc1)S*; X19 = CN(Cc1ccc(-c2[nH]c3cc(F)cc4c3c2CCNC4=O)cc1)C(=O)OCCS*; X2 = NC(=O)c1cccc2[nH]c(-c3ccc(COC(=O)OCCS*)cc3)nc12

Sequence of PARP (P09874 whole entry): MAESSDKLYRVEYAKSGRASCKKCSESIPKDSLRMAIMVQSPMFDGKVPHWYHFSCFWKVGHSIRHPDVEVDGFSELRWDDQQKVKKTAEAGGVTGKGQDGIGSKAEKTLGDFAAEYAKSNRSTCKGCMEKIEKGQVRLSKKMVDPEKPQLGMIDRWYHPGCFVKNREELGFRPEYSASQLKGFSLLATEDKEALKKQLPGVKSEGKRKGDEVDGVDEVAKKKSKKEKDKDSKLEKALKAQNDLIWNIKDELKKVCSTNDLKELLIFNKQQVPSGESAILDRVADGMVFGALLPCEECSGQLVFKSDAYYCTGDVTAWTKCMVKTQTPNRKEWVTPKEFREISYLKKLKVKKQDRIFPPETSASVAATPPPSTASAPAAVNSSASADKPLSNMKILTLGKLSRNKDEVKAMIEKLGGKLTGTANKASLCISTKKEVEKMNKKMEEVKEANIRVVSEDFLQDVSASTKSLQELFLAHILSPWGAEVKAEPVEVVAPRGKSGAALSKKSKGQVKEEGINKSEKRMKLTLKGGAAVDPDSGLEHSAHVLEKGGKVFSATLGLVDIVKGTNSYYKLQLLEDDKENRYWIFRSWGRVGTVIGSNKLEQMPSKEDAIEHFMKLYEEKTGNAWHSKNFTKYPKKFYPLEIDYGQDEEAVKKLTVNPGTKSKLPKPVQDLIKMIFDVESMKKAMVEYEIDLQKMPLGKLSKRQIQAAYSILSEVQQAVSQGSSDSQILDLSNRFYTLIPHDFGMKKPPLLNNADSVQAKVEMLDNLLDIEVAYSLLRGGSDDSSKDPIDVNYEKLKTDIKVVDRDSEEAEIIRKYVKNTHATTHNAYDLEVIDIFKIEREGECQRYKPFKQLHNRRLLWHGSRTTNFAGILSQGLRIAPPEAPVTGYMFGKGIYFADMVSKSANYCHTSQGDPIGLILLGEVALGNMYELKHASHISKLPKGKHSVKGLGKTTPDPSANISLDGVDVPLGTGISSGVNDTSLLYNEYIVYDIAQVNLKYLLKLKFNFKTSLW

This assay concerns the target PARP (Homo sapiens, UniProt P09874). In words: Enzymatic Assay 2: HT Universal Chemiluminescent PARP Assay of cleaved compounds.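 Also: PARP reaction with activated DNA run 1 h at room temperature, product detected via streptavidin-HRP and luminescence endpoint reading on a plate reader.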 The settings on record: read-out: IC50 Enzymatic Assay 2; Examples cleaved per Example A (crude cleavage solution); R^8H starting materials as such.
For `CC(C)C[C@H](NC(=O)[C@H](Cc1ccc(O)cc1)NC(=O)[C@H](C)NC(=O)[C@H](CCCNC(=N)N)NC(=O)[C@H](Cc1c[nH]c2ccccc12)NC(=O)[C@@H]1CCCN1C(=O)[C@H](CC(N)=O)NC(=O)[C@H](CCC(N)=O)NC(=O)[C@H](CC(=O)O)NC(=O)[C@H](CC(=O)O)NC(=O)[C@H](C)N)C(=O)N[C@@H](CC(=O)O)C(=O)N[C@@H](CC(C)C)C(=O)N[C@@H](CC(C)C)C(=O)N[C@@H](Cc1ccccc1)C(=O)N1CCC[C@H]1C(=O)N[C@H](C(=O)N[C@@H](CC(=O)O)C(=O)N[C@H](C(=O)N[C@@H](CC(C)C)C(=O)N[C@@H](CC(C)C)C(=O)N[C@@H](CC(C)C)C(=O)N[C@@H](CC(=O)O)C(=O)N[C@@H](CC(C)C)C(=O)N[C@@H](CC(C)C)C(=O)N[C@@H](Cc1c[nH]c2ccccc12)C(=O)N[C@@H](CSSCCOC(=O)OCc1ccc(-c2nc3c(C(N)=O)cccc3[nH]2)cc1)C(=O)NCC(=O)O)[C@@H](C)O)[C@@H](C)O` [Example 1], the half-maximal inhibitory concentration (IC50) was determined as 12.1 nM. To `CC[C@H](C)[C@H](NC(=O)[C@@H]1CCCN1C(=O)[C@H](CC(N)=O)NC(=O)[C@H](CCC(N)=O)NC(=O)[C@H](CCC(=O)O)NC(=O)[C@H](C)N)C(=O)N[C@@H](Cc1ccc(O)cc1)C(=O)N[C@@H](Cc1c[nH]c2ccccc12)C(=O)N[C@@H](C)C(=O)N[C@@H](CCCNC(=N)N)C(=O)N[C@@H](Cc1ccc(O)cc1)C(=O)N[C@@H](C)C(=O)N[C@@H](CC(=O)O)C(=O)N[C@@H](Cc1c[nH]c2ccccc12)C(=O)N[C@@H](CC(C)C)C(=O)N[C@@H](Cc1ccccc1)C(=O)N[C@H](C(=O)N[C@H](C(=O)N1CCC[C@H]1C(=O)N[C@@H](CC(C)C)C(=O)N[C@@H](CC(C)C)C(=O)N[C@@H](CC(C)C)C(=O)N[C@@H](CC(C)C)C(=O)N[C@@H](CC(=O)O)C(=O)N[C@@H](CC(C)C)C(=O)N[C@@H](C)C(=O)N[C@@H](CC(C)C)C(=O)N[C@@H](CC(C)C)C(=O)N[C@H](C(=O)N[C@@H](CC(=O)O)C(=O)N[C@@H](C)C(=O)N[C@@H](CC(=O)O)C(=O)N[C@@H](CCC(=O)O)C(=O)N[C@@H](CSSCCOC(=O)OCc1ccc(-c2nc3c(C(N)=O)cccc3[nH]2)cc1)C(=O)NCC(=O)O)C(C)C)[C@@H](C)O)[C@@H](C)O` [Example 2] (H-AEQNPIYWARYADWLFTTPLLLLDLALLVDADEC(X2)G-OH; N-terminus and C-terminus assumed) belongs 9.52 nM. Regarding `CC(C)C[C@H](NC(=O)[C@H](Cc1ccc(O)cc1)NC(=O)[C@H](C)NC(=O)[C@H](CCCNC(=N)N)NC(=O)[C@H](Cc1c[nH]c2ccccc12)NC(=O)[C@@H]1CCCN1C(=O)[C@H](CC(N)=O)NC(=O)[C@H](CCC(N)=O)NC(=O)[C@H](CC(=O)O)NC(=O)[C@H](CC(=O)O)NC(=O)[C@H](C)N)C(=O)N[C@@H](CC(=O)O)C(=O)N[C@@H](CC(C)C)C(=O)N[C@@H](CC(C)C)C(=O)N[C@@H](Cc1ccccc1)C(=O)N1CCC[C@H]1C(=O)N[C@H](C(=O)N[C@@H](CC(=O)O)C(=O)N[C@H](C(=O)N[C@@H](CC(C)C)C(=O)N[C@@H](CC(C)C)C(=O)N[C@@H](CC(C)C)C(=O)N[C@@H](CC(=O)O)C(=O)N[C@@H](CC(C)C)C(=O)N[C@@H](CC(C)C)C(=O)N[C@@H](Cc1c[nH]c2ccccc12)C(=O)N[C@@H](CC(=O)O)C(=O)N[C@@H](C)C(=O)N[C@@H](CC(=O)O)C(=O)N[C@@H](CCC(=O)O)C(=O)N[C@@H](CSSCCOC(=O)N1CCC[C@@H](c2ccc(-n3cc4cccc(C(N)=O)c4n3)cc2)C1)C(=O)NCC(=O)O)[C@@H](C)O)[C@@H](C)O` [Example 10], the IC50 was found to be 64.9 nM. The same measure for `CC(C)C[C@H](NC(=O)[C@H](Cc1ccc(O)cc1)NC(=O)[C@H](C)NC(=O)[C@H](CCCNC(=N)N)NC(=O)[C@H](Cc1c[nH]c2ccccc12)NC(=O)[C@@H]1CCCN1C(=O)[C@H](CC(N)=O)NC(=O)[C@H](CCC(N)=O)NC(=O)[C@H](CC(=O)O)NC(=O)[C@H](CC(=O)O)NC(=O)[C@H](C)N)C(=O)N[C@@H](CC(=O)O)C(=O)N[C@@H](CC(C)C)C(=O)N[C@@H](CC(C)C)C(=O)N[C@@H](Cc1ccccc1)C(=O)N1CCC[C@H]1C(=O)N[C@H](C(=O)N[C@@H](CC(=O)O)C(=O)N[C@H](C(=O)N[C@@H](CC(C)C)C(=O)N[C@@H](CC(C)C)C(=O)N[C@@H](CC(C)C)C(=O)N[C@@H](CC(=O)O)C(=O)N[C@@H](CC(C)C)C(=O)N[C@@H](CC(C)C)C(=O)N[C@@H](Cc1c[nH]c2ccccc12)C(=O)N[C@@H](CC(=O)O)C(=O)N[C@@H](C)C(=O)N[C@@H](CC(=O)O)C(=O)N[C@@H](CCC(=O)O)C(=O)N[C@@H](CSSCCOC(=O)N1CCC[C@]1(C)c1nc2c(C(N)=O)cccc2[nH]1)C(=O)NCC(=O)O)[C@@H](C)O)[C@@H](C)O` [Example 11]: 1.08 nM. The same measure for `CC[C@H](C)[C@H](NC(=O)[C@@H]1CCCN1C(=O)[C@H](CC(N)=O)NC(=O)[C@H](CCC(N)=O)NC(=O)[C@H](CCC(=O)O)NC(=O)[C@H](C)N)C(=O)N[C@@H](Cc1ccc(O)cc1)C(=O)N[C@@H](Cc1c[nH]c2ccccc12)C(=O)N[C@@H](C)C(=O)N[C@@H](CCCNC(=N)N)C(=O)N[C@@H](Cc1ccc(O)cc1)C(=O)N[C@@H](C)C(=O)N[C@@H](CC(=O)O)C(=O)N[C@@H](Cc1c[nH]c2ccccc12)C(=O)N[C@@H](CC(C)C)C(=O)N[C@@H](Cc1ccccc1)C(=O)N[C@H](C(=O)N[C@H](C(=O)N1CCC[C@H]1C(=O)N[C@@H](CC(C)C)C(=O)N[C@@H](CC(C)C)C(=O)N[C@@H](CC(C)C)C(=O)N[C@@H](CC(C)C)C(=O)N[C@@H](CC(=O)O)C(=O)N[C@@H](CC(C)C)C(=O)N[C@@H](C)C(=O)N[C@@H](CC(C)C)C(=O)N[C@@H](CC(C)C)C(=O)N[C@H](C(=O)N[C@@H](CC(=O)O)C(=O)N[C@@H](C)C(=O)N[C@@H](CC(=O)O)C(=O)N[C@@H](CCC(=O)O)C(=O)N[C@@H](CSSCCOC(=O)N(C)Cc1ccc(-c2[nH]c3cc(F)cc4c3c2CCNC4=O)cc1)C(=O)NCC(=O)O)C(C)C)[C@@H](C)O)[C@@H](C)O` [Example 15] (H-AEQNPIYWARYADWLFTTPLLLLDLALLVDADEC(X19)G-OH; N-terminus and C-terminus assumed): 6.47 nM. For the compound `CC(C)C[C@H](NC(=O)[C@H](Cc1ccc(O)cc1)NC(=O)[C@H](C)NC(=O)[C@H](CCCNC(=N)N)NC(=O)[C@H](Cc1c[nH]c2ccccc12)NC(=O)[C@@H]1CCCN1C(=O)[C@H](CC(N)=O)NC(=O)[C@H](CCC(N)=O)NC(=O)[C@H](CC(=O)O)NC(=O)[C@H](CC(=O)O)NC(=O)[C@H](C)N)C(=O)N[C@@H](CC(=O)O)C(=O)N[C@@H](CC(C)C)C(=O)N[C@@H](CC(C)C)C(=O)N[C@@H](Cc1ccccc1)C(=O)N1CCC[C@H]1C(=O)N[C@H](C(=O)N[C@@H](CC(=O)O)C(=O)N[C@H](C(=O)N[C@@H](CC(C)C)C(=O)N[C@@H](CC(C)C)C(=O)N[C@@H](CC(C)C)C(=O)N[C@@H](CC(=O)O)C(=O)N[C@@H](CC(C)C)C(=O)N[C@@H](CC(C)C)C(=O)N[C@@H](Cc1c[nH]c2ccccc12)C(=O)N[C@@H](CSS[C@H](C)COC(=O)N(C)Cc1ccc(-c2[nH]c3cc(F)cc4c3c2CCNC4=O)cc1)C(=O)NCC(=O)O)[C@@H](C)O)[C@@H](C)O` [Example 18], the IC50 came out at 1.1 nM. To `CC[C@H](C)[C@H](NC(=O)[C@@H]1CCCN1C(=O)[C@H](CC(N)=O)NC(=O)[C@H](CCC(N)=O)NC(=O)[C@H](CCC(=O)O)NC(=O)[C@H](C)N)C(=O)N[C@@H](Cc1ccc(O)cc1)C(=O)N[C@@H](Cc1c[nH]c2ccccc12)C(=O)N[C@@H](C)C(=O)N[C@@H](CCCNC(=N)N)C(=O)N[C@@H](Cc1ccc(O)cc1)C(=O)N[C@@H](C)C(=O)N[C@@H](CC(=O)O)C(=O)N[C@@H](Cc1c[nH]c2ccccc12)C(=O)N[C@@H](CC(C)C)C(=O)N[C@@H](Cc1ccccc1)C(=O)N[C@H](C(=O)N[C@H](C(=O)N1CCC[C@H]1C(=O)N[C@@H](CC(C)C)C(=O)N[C@@H](CC(C)C)C(=O)N[C@@H](CC(C)C)C(=O)N[C@@H](CC(C)C)C(=O)N[C@@H](CC(=O)O)C(=O)N[C@@H](CC(C)C)C(=O)N[C@@H](C)C(=O)N[C@@H](CC(C)C)C(=O)N[C@@H](CC(C)C)C(=O)N[C@H](C(=O)N[C@@H](CC(=O)O)C(=O)N[C@@H](C)C(=O)N[C@@H](CC(=O)O)C(=O)N[C@@H](CCC(=O)O)C(=O)N[C@@H](CSS[C@H](C)COC(=O)N(C)Cc1ccc(-c2[nH]c3cc(F)cc4c3c2CCNC4=O)cc1)C(=O)NCC(=O)O)C(C)C)[C@@H](C)O)[C@@H](C)O` [Example 19] (H-AEQNPIYWARYADWLFTTPLLLLDLALLVDADEC(X12)G-OH; N-terminus and C-terminus assumed) belongs 2.2 nM. For the compound `CC(C)C[C@H](NC(=O)[C@H](Cc1ccc(O)cc1)NC(=O)[C@H](C)NC(=O)[C@H](CCCNC(=N)N)NC(=O)[C@H](Cc1c[nH]c2ccccc12)NC(=O)[C@@H]1CCCN1C(=O)[C@H](CC(N)=O)NC(=O)[C@H](CCC(N)=O)NC(=O)[C@H](CC(=O)O)NC(=O)[C@H](CC(=O)O)NC(=O)[C@H](C)N)C(=O)N[C@@H](CC(=O)O)C(=O)N[C@@H](CC(C)C)C(=O)N[C@@H](CC(C)C)C(=O)N[C@@H](Cc1ccccc1)C(=O)N1CCC[C@H]1C(=O)N[C@H](C(=O)N[C@@H](CC(=O)O)C(=O)N[C@H](C(=O)N[C@@H](CC(C)C)C(=O)N[C@@H](CC(C)C)C(=O)N[C@@H](CC(C)C)C(=O)N[C@@H](CC(=O)O)C(=O)N[C@@H](CC(C)C)C(=O)N[C@@H](CC(C)C)C(=O)N[C@@H](Cc1c[nH]c2ccccc12)C(=O)N[C@@H](CC(=O)O)C(=O)N[C@@H](C)C(=O)N[C@@H](CC(=O)O)C(=O)N[C@@H](CCC(=O)O)C(=O)N[C@@H](CSS[C@H](C)COC(=O)N(C)Cc1ccc(-c2[nH]c3cc(F)cc4c3c2CCNC4=O)cc1)C(=O)NCC(=O)O)[C@@H](C)O)[C@@H](C)O` [Example 20], the IC50 came to 1.7 nM.
